Data on one molecule can be found in PMC8387799, “Inhibition Effect of Extract of Psychotria viridiflora Stem on α-Amylase and α-Glucosidase and Its Application in Lowering the Digestibility of Noodles” (Frontiers in Nutrition, 2021).

Structures are written as SMILES. Converted amounts (≈) assume the structure as drawn.

This experiment has as its system T1, rat intestinal α-glucosidase.
T1 construct: gene Mgam; native; supernatant of PBS extract of commercial rat intestinal powder (crude mixture of brush-border glucosidases)
The experiment is described as follows: turbidity ([…] nm) of corn starch hydrolysis, AUC, microplate. The class given is biochemical. The following applies: corn starch substrate; PBS, 37 °C preincubation 15 min.

Broadly, the IC50 is the point on the concentration scale where inhibition reaches its midpoint. High values mean lower potency, low ones higher potency. As for `C[C@H]1O[C@H](O[C@H]2[C@H](O)[C@@H](O)[C@@H](O[C@H]3[C@H](O)[C@@H](O)C(O)O[C@@H]3CO)O[C@@H]2CO)[C@H](O)[C@@H](O)[C@@H]1N[C@H]1C=C(CO)[C@@H](O)[C@H](O)[C@H]1O` (stereo partly shown) [acarbose], the concentration for half-maximal inhibition (IC50) stood at 2.27 ± 1.35 µg/mL (≈ 3.52 µM).
